# Assay results from patent publication EP0109255A2, “Glycerol derivatives” (ONO PHARMACEUTICAL CO., LTD., priority 1982, dated 1984).
# Tested on: mice
# Test: Acute toxicity by intravenous administration (tail vein)
# Type: in vivo
# Procedure: On the other hand, it was confirmed that the acute toxicity of all extent of the compounds of the present invention was more. than 30 mg/kg by intravenous administration. Therefore, glycerol derivatives of the present invention may be considered to be sufficiently safe and suitable for medical use. For example, the mortality (dead/used) in glycerol derivatives of the present invention, i.e. compounds prepared in Example 8, 8(j) and 8(r) was 2/10, 0/10 and 0/10, respectively, when each glycerol compound was intravenously administered to tail vein in ten mice at the dose of 30 mg/kg.
Structure (SMILES),mortality (dead/used) (intravenously administered to tail vein in ten mice at the dose of 30 mg/kg),"mortality (dead/used) (mouse, in vivo, iv, 30 mg/kg)"
"CCCCCCCCCCCCCCCCOCC(COCCCC[N+](C)(C)C)NC(=O)OCCCC (racemic) [8 (j), (2RS)-l-0-hexadecyl-2-dehydroxy-2-butoxycarbonylamino-3-0-[4-(N,N,N-trimethylammonio)butyl]glycerol iodide]",0/10,–
CCCCCCCCCCCCCCCCOCC(COCCCC[N+](C)(C)C)NC(=O)NCCC (stereo not drawn) [8 (r)],–,0/10
CCCCCCCCCCCCCCCCOCC(COCCCC[N+](C)(C)C)NC(=O)c1ccccc1 (stereo not drawn) [Example 8],–,2/10
